Values quoted from earlier work, collected in paper PMC5061580 (Journal of biomolecular structure & dynamics, 2016).

Legend:
[1] = test system: Madin-Darby canine kidney cells (MDCK); conditions: in vitro cell culture monolayers; ref Makagiansar et al., 2001
blood-brain barrier = conditions: in-situ rat brain perfusion; ref Kiptoo et al., 2011; On et al., 2014

Question: With Ac-SHAVSS-NH2 [HAV6] as the substance, how does the “delivery of 14C-mannitol across MDCK monolayers” value [1] read?
Answer: enhances

Question: What about the “brain delivery of 14C-mannitol and 3H-daunomycin” value (blood-brain barrier) of the same substance?
Answer: increase the brain delivery
